According to US20050148553A1, “Use of tigecycline, alone, or in combination with rifampin to treat osteomyelitis and/or septic arthritis” (priority 2003, published 2005):
Where “and” joins values, the source holds several entries; their conditions need not be identical. Equal values may be shown once.

Assays:
[1] = Mass balance study, 5 mg/kg intravenous dose; format: in vivo, Sprague-Dawley rats; conditions: male rats
[2] = Tigecycline in human serum, tissue and synovial fluid after one intravenous 100 mg dose (LC/MS/MS); format: in vivo; set-up: Calculated Concentration, serum: unit not given here
Experimental: The objective of this study was to determine the tissue and corresponding serum concentration of tigecycline at selected time points in lung, colon, gallbladder tissues, bone, and synovial fluid. Samples were taken from subjects scheduled for lung, colon, gallbladder, or bone surgery, or a lumbar puncture who were given a single dose of tigecycline administered intravenously.
Pre-specified tissue/fluid sampling of either lung, colon, gallbladder, bone, and synovial fluid was performed on each subject during surgery at 4 hours, 8 hours, 12 hours, or 24 hours after the start of a single dose of 100 mg tigecycline administered over 30 minutes. Serum was collected from all subjects at hour 0 (before the first dose), approximately 30 minutes (end of infusion), and at the time corresponding to tissue/fluid collections. Tissue and serum concentration was determined according to the method set forth below.
Samples of human serum and tissue from study subjects who had received tigecycline were analyzed according to methods that had been previously validated. Serum samples and synovial fluid (0.2 ml) were mixed with 0.6 ml internal standard in acetonitrile, the supernatant evaporated to dryness and the residue reconstituted in 200 microliters mobile phase. Aliquots (10 microliters) of the reconstituted samples were injected into an LC/MS/MS.
The data was acquired by and analyzed on PE SCIEX “Analyst” version 1.3 software. Linear regression, with 1/x^2 weighting was used to obtain the best fit of the data for the calibration curves. The lower limit of quantitation was 10 ng/ml for serum and synovial fluid samples, 10 ng/g for the colon and gall bladder samples, and 30 ng/g for the bone samples.
Tigecycline was measured in human serum using an LC/MS/MS method. The primary stock solution of tigecycline was prepared at 1 mg/ml by dissolving in methanol. A secondary stock solution was prepared from the primary stock solution by diluting to a concentration of approximately 40,000 ng/ml with acetonitrile. The stock solutions were stored at −20° C. when not in use. A primary internal standard solution of tert-butyl-d9-tigecycline was prepared at a concentration of 1 mg/ml in methanol. A secondary internal standard stock solution was prepared by diluting the primary stock solution to a concentration of 100 micrograms/ml in acetonitrile with 0.1% trifluoroacetate added. The primary and secondary stock solutions were stored at −20° C. The working internal standard was prepared by diluting to volume with acetonitrile/0.1% trifluoroacetate. The working internal standard was stored at 4° C. when not in use. On the day of analysis, the secondary stock solution was brought to room temperature before use to prepared the standard curve working solutions. The standard curve was prepared at approximately 2000, 1600, 1000, 500, 250, 100, 50, 20, and 10 ng/ml by serial dilution in blank human serum.
The extraction procedure was as follows: to 200 microliters of calibrator, quality control or sample was added 600 microliters of internal standard working solution and vortex mixed. The samples were centrifuged for 10 minutes at 13000 rpm to separate the layers and the supernatant was transferred to a culture tube. The samples were evaporated to dryness in a Speed Vac. The residues were reconstituted by sonicating in 200 microliters of mobile phase and 10 microliters was injected in the LC/MS/MS. […]

[3] = Pharmacokinetics and tolerability of intravenous tigecycline in humans; format: in vivo, human
Acinetobacter baumannii = test: Compassionate use study, osteomyelitis patient; format: in vivo, human; conditions: 50 mg every 12 or 24 hours for two months; within one month
Experimental: The patient was treated with meropenem and tobramycin. […] The patient was then treated with tigecycline for two months with either 50 mg every 12 hours or 50 mg every 24 hours.

| SMILES | recovery of radioactivity [1] [%] | Calculated Concentration, tissue ([2]; Lung, 4 to 24 hours after dose) [n2/2] | concentration at 8 h ([2]; human, synovial fluid, intravenous, 100 mg, synovial fluid, 8 Hour, read-out: Calculated Concentration, synovial fluid) [ng/mL] | concentration at 12 h ([2]; human, synovial fluid, intravenous, 100 mg, synovial fluid, 12 Hour, read-out: Calculated Concentration, synovial fluid) [ng/mL] | Calculated Concentration, serum ([2]; serum, 8 Hour) | Calculated Concentration, synovial fluid ([2]; synovial fluid, 12 Hour) | half-life ([3]; human, in vivo, intravenous, humans) [h] | Vd ([3]; human, in vivo, intravenous, humans, read-out: volume of distribution at steady state) [L/kg] | dose tolerated ([3]; one-hour infusion, human subjects) | dose resulting in gastrointestinal intolerance (nausea and vomiting) in all subjects ([3]; twice daily over nine days, 200 ml infusion over one hour, fed) [mg] | dose tolerated ([3]; twice daily, 200 ml infusion over one hour) [mg] | clinical outcome (MRI) (Acinetobacter baumannii) |
| --- | --- | --- | --- | --- | --- | --- | --- | --- | --- | --- | --- | --- |
| CN(C)c1cc(NC(=O)CNC(C)(C)C)c(O)c2c1C[C@H]1C[C@H]3[C@H](N(C)C)C(O)=C(C(N)=O)C(=O)[C@@]3(O)C(O)=C1C2=O [[^14C]-Tigecycline] | 89.4±2.50 |  |  |  |  |  |  |  |  |  |  |  |
| CN(C)c1cc(NC(=O)CNC(C)(C)C)c(O)c2c1C[C@H]1C[C@H]3[C@H](N(C)C)C(O)=C(C(N)=O)C(=O)[C@@]3(O)C(O)=C1C2=O [Tigecycline] |  | 653 | 70.9 | 111 | 198 {n&mll and 186 {n&mll and 133 {n&mll and 206 {n&mll | 65.0 ng/mL and 65.7 ng/mL and 62.8 ng/mL | 40 to 60 | 7 to 14 | up to 100 mg | ≥ 75 | 25 to 50 | resolution of the osteomyelitis |
